The target of experiment [1] is T1, SpoVD (CdSpoVD, CDR20291_2544; soluble construct SpovD 38-583) (Clostridioides difficile, UniProt A0A9R0BM53).
T1 construct: pETGSTSUMO vector (NheI/XhoI), E. coli BL21(DE3) pLysS; fusion tag removed with ULP1
Kind of experiment: Bacillin (bocillin) inhibition assay, SpoVD. It counts as biochemical. The method, then: FIG. 2 is a table of IC50 values of select $-lactam antibiotics against SpoVD, their percentage inhibition of sporulation, and the concentration at which they were tested (½ MIC).
FIGS. 4A-4F show chemical structures of DPO sporulation inhibitors, their biochemical inhibition against SpoVD and their in vitro sporulation inhibition, wherein * indicates >50%, ** indicates >90%, and ***>95%.
(§1) Reactions were performed in a 96-well polystyrene plate with a final volume of 60 μl at 37° C. in 1× tris-buffered saline (20 mM Tris, 150 mM NaCl). […] Protein was then diluted and added to the well for a final concentration of 1 μM and incubated for 15 minutes at 37° C. 1 μL of bocillin (BOCILLIN™ FL Penicillin, Sodium Salt, Thermo Fisher Scientific) was added to each well for a final concentration of 20 μM, and incubated for 10 minutes at 37° C. Reactions were killed with 10 μL of 6×SDS loading buffer and pooled or directly loaded onto a 15-well Novex Wedgewell 8% Tris-Glycine Gels and ran at 175 V for ˜1 hour. Gels were then imaged (Biorad) for 6 seconds with the fluorescein blot filter setting and analyzed using ImageJ. All values were normalized to background intensity and divided by the average of three control intensities (no inhibitor) for % inhibition value. Assays were performed in duplicate or triplicate and IC50 values were calculated using a 3-parameter nonlinear regression.
(§2) The coding sequence corresponding to the soluble constructs of CDR20291_1067 (PBP3), CDR20291_0985 (PBP2) and CDR20291_2544 (CdSpoVD) were amplified from C. difficile R20291 genomic DNA The expression vector was modified from pETGST, in which the thrombin cleavage site was replaced by TEV (named pETGSTTEV) or ULP1 (named pETGSTSUMO) cleavage site. The vector was digested and the PCR fragments for each protein was inserted into the multi-clone site accordingly. SpovD 38-583 inserted into the NheI/XhoI site of the pETGSTSUMO vector. Cloned vector was then transformed into BL21(DE3) pLysS Escherichia coli (E. coli). Standard overnight cultures were grown in LB media containing chloramphenicol and kanamycin and used to inoculate 1 L LB cultures.
(§3) Cultures were grown until the optical density (OD600) reached ˜0.7. Protein expression was then induced with 0.5 mM isopropyl-β-d-thiogalactopyranoside (IPTG) overnight at 20° C. Cells were harvested via centrifugation at 4000×g for 10 minutes at 4° C. The cell pellet was suspended with a solution of 20 mM Tris pH 8.0, 200 mM NaCl, 20 mM imidazole, and one dissolved Thermo Scientific™ Pierce Protease Inhibitor Tablets. Cells were lysed with a sonicator using a 10 second sonication/15 second rest cycle for 15 minutes. Cell lysate was centrifuged at 45,000×g for 35 minutes and supernatant was loaded onto a HisTrap affinity column (GE Healthcare). A linear gradient of buffer B (20 mM Tris pH 8.0, 300 mM NaCl, 500 mM imidazole, and 10% glycerol) was applied to elute the recombinant protein which usually occurred at 30% buffer B. These fractions were pooled and buffer exchanged three times into protease buffer (20 mM Tris pH 8.0, 10% glycerol) using an Amicon Ultra centrifugal filter (Sigma-Aldrich). Purified His6-tagged TEV protease was added to all proteins at a 1:20 ratio except for CdSpoVD and incubated overnight at 4° C. Pure His6-tagged ULP1 protease was added to CdSpoVD at 1:20 ratio and incubated overnight at 4° C. The digested protein was re-loaded onto the HisTrap affinity column. Flowthrough was collected, concentrated, and loaded to a HiLoad 16/60 Superdex 75 size exclusion column (GE Healthcare) where it ran at a flow rate of 0.5 ml/min. Peak fractions were combined and purity assessed (>95%) with gel-electrophoresis. The identity of each enzyme was independently characterized with gel-electrophoresis, native-mass spectrometry, bocillin or nitrocefin binding, and/or X-ray crystallography.

Experiment [2] addresses T2, PBP3 (CDR20291_1067; soluble construct) (Clostridioides difficile, UniProt A0A9R0CE13).
T2 construct: modified pETGST vector with TEV site, E. coli BL21(DE3) pLysS; tag removed with TEV
Kind of experiment: Bacillin (bocillin) inhibition assay, PBP3. It counts as biochemical. The settings on record: FIGS. 6A-6F; 1 μM protein, 15 min preincubation at 37° C., 20 μM bocillin. The method, then: FIGS. 6A-6F show the crystal structure of PBP3 and the chemical structures of DBO sporulation inhibitors, wherein * indicates >50%, ** indicates >90%, and ***>95%.
as §1, §2
as §3, with “The identity of each enzyme was independently characterized with gel-electrophoresis, native-mass spectrometry, bocillin or nitrocefin binding, and/or X-ray crystallography.” left out

The mark [3] stands for this setting: FIG. 2, 1 μM protein, 15 min preincubation at 37° C., 20 μM bocillin, read-out: SpoVD IC50.
Setting [4] is: FIGS. 4A-4F, 1 μM protein, 15 min preincubation at 37° C., 20 μM bocillin, read-out: SpoVD IC50.

From US12098153B2, “Small molecule inhibitors targeting Clostridioides difficile sporulation” (UNIVERSITY OF SOUTH FLORIDA, priority 2021, dated 2024) come the findings set out here.

Read-outs that look alike come from different tables or passages of the source.

As a reminder, the IC50 is the concentration that inhibits the measured activity by half.

T1 sequence (A0A9R0BM53 entry or part of it): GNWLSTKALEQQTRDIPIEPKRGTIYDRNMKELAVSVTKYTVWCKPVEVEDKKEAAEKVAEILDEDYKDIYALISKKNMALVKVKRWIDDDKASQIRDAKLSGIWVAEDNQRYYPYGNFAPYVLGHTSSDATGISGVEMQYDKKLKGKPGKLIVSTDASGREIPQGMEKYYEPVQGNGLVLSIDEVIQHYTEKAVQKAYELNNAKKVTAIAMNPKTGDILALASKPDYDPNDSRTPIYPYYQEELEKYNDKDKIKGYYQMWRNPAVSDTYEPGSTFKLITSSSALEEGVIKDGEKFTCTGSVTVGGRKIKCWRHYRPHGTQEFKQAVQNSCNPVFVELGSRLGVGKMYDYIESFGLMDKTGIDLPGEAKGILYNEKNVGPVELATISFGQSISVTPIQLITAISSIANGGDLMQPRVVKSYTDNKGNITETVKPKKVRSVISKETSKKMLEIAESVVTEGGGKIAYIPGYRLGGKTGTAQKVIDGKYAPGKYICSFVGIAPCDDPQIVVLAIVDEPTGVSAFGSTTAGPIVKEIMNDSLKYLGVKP
T2 sequence (A0A9R0CE13 entry or part of it): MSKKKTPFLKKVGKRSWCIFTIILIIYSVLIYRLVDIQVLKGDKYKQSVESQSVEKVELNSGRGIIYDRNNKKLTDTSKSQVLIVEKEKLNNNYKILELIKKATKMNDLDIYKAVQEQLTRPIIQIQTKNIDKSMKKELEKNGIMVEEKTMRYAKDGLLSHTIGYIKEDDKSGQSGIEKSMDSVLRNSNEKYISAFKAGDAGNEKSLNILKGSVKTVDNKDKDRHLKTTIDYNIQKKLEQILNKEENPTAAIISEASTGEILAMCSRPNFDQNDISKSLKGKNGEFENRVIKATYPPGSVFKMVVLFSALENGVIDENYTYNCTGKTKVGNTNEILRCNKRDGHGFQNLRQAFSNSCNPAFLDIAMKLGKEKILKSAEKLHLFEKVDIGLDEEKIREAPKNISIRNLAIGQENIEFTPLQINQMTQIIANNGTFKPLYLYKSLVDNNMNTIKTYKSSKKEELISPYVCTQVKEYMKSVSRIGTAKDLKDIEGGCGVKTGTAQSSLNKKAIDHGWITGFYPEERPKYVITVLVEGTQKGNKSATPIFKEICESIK

Turning to `NC(=O)[C@@H]1CC[C@@H]2CN1C(=O)N2OS(=O)(=O)O` [Avibactam], the IC50 was determined as 165 µM in experiment [1] (setting [3]) and 5.38 µM in experiment [2].

Turning to `O=C(Nc1ccc(-n2cccn2)cc1)[C@@H]1CC[C@@H]2CN1C(=O)N2OS(=O)(=O)O` [Spo12], 0.69 µM corresponded to half-maximal inhibition in experiment [2] (IC50).

Consider `Cc1onc(-c2ccccc2Cl)c1C(=O)N[C@@H]1C(=O)N2[C@@H]1SC(C)(C)[C@@H]2C(=O)O` [Cloxacillin], for which the IC50 in experiment [1] (setting [3]) is 6.12 µM.

Consider `Nc1nc(/C(=N/O)C(=O)N[C@@H]2C(=O)N3C(C(=O)O)=C(/C=C4\CCN([C@@H]5CCNC5)C4=O)CS[C@H]23)ns1` [Ceftobiprole], for which, in experiment [1] (setting [3]), the IC50 was 62.5 µM.

Compound `C[C@H]1[C@H](NC(=O)/C(=N\OC(C)(C)C(=O)O)c2csc(N)n2)C(=O)N1S(=O)(=O)O` [Aztreonam] showed a concentration for half-maximal inhibition (IC50) in experiment [1] of 1.36 µM.

The compound `CC1(C)S[C@@H]2[C@H](NC(=O)[C@H](N)c3ccccc3)C(=O)N2[C@H]1C(=O)O` [Ampicillin] registered a concentration for half-maximal inhibition (IC50) in experiment [1] of 2.54 µM.

On to `CC(=O)OCC1=C(C(=O)O)N2C(=O)[C@@H](NC(=O)Cc3cccs3)[C@H]2SC1` [Cefalothin], for which the half-maximal inhibitory concentration (IC50) in experiment [1] was 0.27 µM.

Regarding `O=C(Nc1ccccc1)[C@H](NC(=O)[C@@H]1CC[C@@H]2CN1C(=O)N2OS(=O)(=O)O)c1ccccc1` [Spo9], the IC50 in experiment [1] (setting [4]) was 13 µM; in experiment [2], 4.86 µM.

`CO[C@@]1(NC(=O)Cc2cccs2)C(=O)N2C(C(=O)O)=C(COC(N)=O)CS[C@@H]21` [Cefoxitin]: in experiment [1] (setting [3]), the concentration for half-maximal inhibition (IC50) is 0.94 µM.

In the case of `CO/N=C(\C(=O)N[C@@H]1C(=O)N2C(C(=O)O)=C(COC(C)=O)CS[C@H]12)c1csc(N)n1` [Cefotaxime], the IC50 in experiment [1] (setting [3]) was 7.83 µM.

In the case of `O=C(NCc1ccccc1)[C@@H]1CC[C@@H]2CN1C(=O)N2OS(=O)(=O)O` [Spo7], the concentration for half-maximal inhibition (IC50) in experiment [1] (setting [3]) is 53.1 µM.

As for `O=C(Nc1ccccc1)[C@@H]1CC[C@@H]2CN1C(=O)N2OS(=O)(=O)O` [Spo6], the IC50 stood at 103 µM in experiment [1] (setting [3]) and 2.01 µM in experiment [2].

For `O=C(CNC(=O)[C@@H]1CC[C@@H]2CN1C(=O)N2OS(=O)(=O)O)c1ccccc1` [Spo8], the half-inhibitory concentration (IC50) in experiment [1] (setting [3]) was determined as 63.8 µM.

Turning to `O=C(Nc1cccc2ccccc12)[C@@H]1CC[C@@H]2CN1C(=O)N2OS(=O)(=O)O` [Spo11], in experiment [2], the IC50 amounted to 2.24 µM.

Turning to `O=C(Nc1ccccc1)[C@@H](Cc1ccccc1)NC(=O)[C@@H]1CC[C@@H]2CN1C(=O)N2OS(=O)(=O)O` [Spo10], the IC50 in experiment [1] (setting [4]) came out at 3.92 µM.

With `CC(C)(O/N=C(\C(=O)N[C@@H]1C(=O)N2C(C(=O)[O-])=C(C[n+]3ccccc3)CS[C@H]12)c1csc(N)n1)C(=O)O` [Ceftazidime], in experiment [1], half-maximal inhibition (IC50) was put at 2.47 µM.
